Survival data for one compound are collected here from patent publication US12324830B2 (priority 2018, dated 2025).

Numbered stars: 1 amine (or outer) side, 2 acyl side, 3 side chain; on linkers, the order of the positions; unused ones are H or OH. Bridge positions count the residues as written; N and C are the ends. Square brackets hold non-standard residues; d marks the D form. Peptide text beside a SMILES is read from it. * marks the point of attachment. hTyr(3S-OH,4S-OH,3'-OSO3H) = N[C@H](C(=O)O)[C@H](O)[C@@H](O)c1ccc(O)c(OS(=O)(=O)O)c1; Orn(4R-OH,5R-OH) = O=C([C@H](C[C@@H](O)[C@@H](O)N[*:3])N[*:1])[*:2]; Pro(3S-OH,4S-Me) = C[C@H]1CN[C@H](C(=O)O)[C@H]1O; X1 = CCCCCOc1ccc(-c2cc(-c3ccc(C(=O)*)cc3)no2)cc1; Gln(3R-OH) = NC(=O)C[C@@H](O)[C@H](N)C(=O)O; Hyp = O=C(O)[C@@H]1C[C@@H](O)CN1

The assay has as its system C. auris. Also noted: species or system mice. The conditions noted are these: mouse, in vivo.

With `CCCCCOc1ccc(-c2cc(-c3ccc(C(=O)N[C@H]4C[C@@H](O)[C@@H](O)NC(=O)[C@@H]5[C@@H](O)[C@@H](C)CN5C(=O)[C@H]([C@H](O)CC(N)=O)NC(=O)[C@H]([C@H](O)[C@@H](O)c5ccc(O)c(OS(=O)(=O)O)c5)NC(=O)[C@@H]5C[C@@H](O)CN5C(=O)[C@H]([C@@H](C)O)NC4=O)cc3)no2)cc1` [micafungin] (X1-[Orn(4R-OH,5R-OH)]T[Hyp][hTyr(3S-OH,4S-OH,3'-OSO3H)][Gln(3R-OH)][Pro(3S-OH,4S-Me)]; lactam 1-C), the survival is 20%.
